Measured values published in BigSolDB 2.1.

COc1ccc2nc(S(=O)Cc3ncc(C)c(OC)c3C)[nH]c2c1 (stereo unspecified)
solubility (mole fraction)
Details	in THF	in acetone	in acetonitrile	in ethanol	in ethyl acetate	in methanol	in n-butanol	in water
278.15 K	0.00458	0.00146	0.00118	0.00157	0.000981	0.00206	0.00128	4.07e-05
283.15 K	0.00644	0.00173	0.00143	0.00187	0.00112	0.00264	0.00153	5e-05
288.15 K	0.00843	0.00215	0.00182	0.00224	0.00134	0.00348	0.00196	6.15e-05
293.15 K	0.0113	0.00265	0.00222	0.00261	0.00156	0.00435	0.0024	7.64e-05
298.15 K	0.0146	0.00313	0.00273	0.00347	0.00185	0.00569	0.00303	9.36e-05
303.15 K	0.0196	0.00377	0.00354	0.00413	0.0022	0.00686	0.0037	0.000115
308.15 K	0.0259	0.00464	0.00429	0.00509	0.00253	0.00857	0.00455	0.000138
313.15 K	0.0327	0.00541	0.00513	0.00605	0.00293	0.0106	0.0054	0.000165
318.15 K	0.0425	0.00637	0.00607	0.00702	0.00343	0.0129	0.0065	0.000196
323.15 K	0.0545	0.00739	0.00711	0.00832	0.00405	0.0156	0.00779	0.00023
328.15 K	0.0663	0.0085	0.00843	0.00982	0.0047	0.0186	0.00884	0.000263
333.15 K	0.0789	0.00982	0.00978	0.0113	0.00523	0.0216	0.0103	0.000299
